# Results as given in patent publication EP2241312A1, “Use of compositions comprising urea for treating microbial infections” (ISDIN S.A., priority 2009, dated 2010).
# Where two headings read alike, the source gives them in different places.
# How the values were obtained:
# LL-37 = LL-37 gene expression in subconfluent primary human keratinocytes after urea stimulation (real time PCR); assay type: cell-based; settings: 10mM urea, compared to untreated control cells; for relative gene expression level LL-37: 10000 µM; for fold induction at 10000 µM: Homo sapiens, Keratinocyte, read-out: relative gene expression level LL-37
# Experimental: (§1) Primary human epidermal keratinocytes were prepared from neonatal foreskin as described previously (Grether-Beck et al, 1996, 2000, 2003, 2005, 2008) and maintained in culture under serum free conditions using a defined keratinocyte growth medium Keratinocyte SFM (Invitrogen, Heidelberg, Germany) supplemented with bovine pituitary extract (Invitrogen, Heidelberg, Germany) and recombinant epidermal growth factor (Invitrogen, Heidelberg, Germany). Cells were propagated up to passage 2 or 3 at 37°C and 5 % CO2 (Grether-Beck et al, 1996, 2000, 2003, 2005, 2008). For induction of differentiation NHEKs were seeded in 6well plates and grown up to confluence.
# (§2) For assessment of gene expression total RNA was extracted from frozen biopsies (Ø 4 mm) and gene expression measured by semiquantitative RT-PCR. For isolation of RNA from frozen skin biopsies, 600 µl lysis buffer from PeqGold Total RNA Kit (PeqLab, Erlangen, Germany) were added and the samples were disrupted in a MixerMill MM300 (Retsch, Haan, Germany) three times for 3 min with 30 Hz. 50 ng total RNA were used for cDNA synthesis. PCR reactions were performed in an Opticon 1 (MJ Research, Waltham, MA, USA) using Sybr QPCR Supermix w. Rox (Invitrogen, Karlsruhe, Germany). PCR conditions were as follows: activation of hot start taq polymerase 94° C 15 minutes; denaturation 95° C, 20 seconds; annealing, 55° C, 20 seconds; extension, 72° C 30 seconds. Each sample was subjected to PCR in double using the appropriate primer pairs for 45-50 cycles. For comparison of relative expression in real time PCR control cells and treated cells the 2 (-della delta C(T)) method was used (Livak KJ, and Schmittgen TD. Analysis of relative gene expression data using real time quantitative PCR and the 2 (-delta delta C(T)) method. Methods 2001: 25: 402 - 408). mRNA expression of the genes of interest was shown as fold induction as compared to untreated skin samples of the same volunteer. Table 1: Primer pairs for real time PCR
# (§3) For determination of relative gene expression in real time PCT the 2(-delta delta C(T))-method was used as described in Livak and Schmittgen (2001) "Analysis of relative gene expression data using real time quantitative PCR and the 2 (-delta delta C(T))-method" Methods 25: 401-408. For statistical analysis, the experimental data were analyzed using the Wilcoxon signed-rank test.
# (§4) HNKs were stimulated with 10mM urea for the indicated time points (3h, 6h, 12h, 24h) and processed for RNA analysis (1). Data are the result of a set of three samples for the control and two samples in parallel for the urea stimulated ones. Table 2 indicates the relative gene expression levels after stimulation with urea as compared to untreated contol cells. […] Table 3 indicates the data depicted in Figure 2. [formula] Table 2: Expression of antimicrobial peptides in human keratinocytes after stimulation with urea at different time points after induction.
# HBD-2 = experiment: cells; assay type: cell-based, human; settings: for fold induction at 1000 µM / fold induction at 10000 µM / fold induction at 20000 µM / fold induction at 50000 µM / fold induction at 100000 µM / fold induction at 5000 µM: Homo sapiens, Keratinocyte; for Expression of HBD-2: keratinocytes
# Experimental: as §1, §2, §3
# Data are the result of a set of three samples for the control and two samples in parallel for the urea stimulated ones. Table 2 indicates the relative gene expression levels after stimulation with urea as compared to untreated contol cells. […] Table 3 indicates the data depicted in Figure 2. [formula] Table 2: Expression of antimicrobial peptides in human keratinocytes after stimulation with urea at different time points after induction.
# HBD3 = experiment: cells; assay type: cell-based, human; settings: for fold induction at 10000 µM: Homo sapiens, Keratinocyte; for relative gene expression level HBD3: primary keratinocytes, 10000 µM
# Experimental: as §1, §2, §3, §4
# HBD2 = experiment: cells; assay type: cell-based, human; settings: for fold induction at 10000 µM: Homo sapiens, Keratinocyte
# Experimental: as §1, §2, §3, §4
# HBD1 = experiment: cells; assay type: cell-based, human; settings: for fold induction at 10000 µM: Homo sapiens, Keratinocyte; for relative gene expression level HBD1: primary keratinocytes, 10000 µM
# Experimental: as §1, §2, §3, §4
# Humpsor = experiment: cells; assay type: cell-based, human; settings: for fold induction at 10000 µM: Homo sapiens, Keratinocyte
# Experimental: as §1, §2, §3, §4
smiles,measurement,setting,value
NC(N)=O [urea],relative gene expression level LL-37,"LL-37; 3h, 180 min",1.9000
same,relative gene expression level LL-37,"LL-37; 24h, 1440 min",1.9000
same,fold induction at 10000 µM,"LL-37; 6 h, 6h",2.8
same,fold induction at 10000 µM,"LL-37; 12 h, 12h",2.3
same,fold induction at 10000 µM,"LL-37; 24 h, 24h",2.1
same,fold induction at 1000 µM,"HBD-2; 24 h, read-out: Expression of HBD-2, 24h, 1mM urea",1.2
same,fold induction at 10000 µM,"HBD-2; 24 h, read-out: Expression of HBD-2, 24h, 10mM urea",1.5
same,fold induction at 20000 µM,"HBD-2; 24 h, read-out: Expression of HBD-2, 24h, 20mM urea",3.9
same,fold induction at 50000 µM,"HBD-2; 24 h, read-out: Expression of HBD-2, 24h, 50mM urea",2.3
same,fold induction at 100000 µM,"HBD-2; 24 h, read-out: Expression of HBD-2, 24h, 100mM urea",1.3
same,fold induction at 1000 µM,"HBD-2; 48 h, read-out: Expression of HBD-2, 48h, 1mM urea",0.9
same,fold induction at 5000 µM,"HBD-2; 48 h, read-out: Expression of HBD-2, 48h, 5mM urea",1.7
same,fold induction at 10000 µM,"HBD-2; 48 h, read-out: Expression of HBD-2, 48h, 10mM urea",3.3
same,fold induction at 20000 µM,"HBD-2; 48 h, read-out: Expression of HBD-2, 48h, 20mM urea",19.1
same,fold induction at 50000 µM,"HBD-2; 48 h, read-out: Expression of HBD-2, 48h, 50mM urea",6.3
same,fold induction at 100000 µM,"HBD-2; 48 h, read-out: Expression of HBD-2, 48h, 100mM urea",2.3
same,fold induction at 1000 µM,"HBD-2; 72 h, read-out: Expression of HBD-2, 72h, 1mM urea",2.2
same,fold induction at 5000 µM,"HBD-2; 72 h, read-out: Expression of HBD-2, 72h, 5mM urea",5.4
same,fold induction at 10000 µM,"HBD-2; 72 h, read-out: Expression of HBD-2, 72h, 10mM urea",6.5
same,fold induction at 20000 µM,"HBD-2; 72 h, read-out: Expression of HBD-2, 72h, 20mM urea",13.3
same,fold induction at 50000 µM,"HBD-2; 72 h, read-out: Expression of HBD-2, 72h, 50mM urea",10.1
same,fold induction at 100000 µM,"HBD-2; 72 h, read-out: Expression of HBD-2, 72h, 100mM urea",2.9
same,fold induction at 1000 µM,"HBD-2; 96 h, read-out: Expression of HBD-2, 96h, 1mM urea",1.9
same,fold induction at 5000 µM,"HBD-2; 96 h, read-out: Expression of HBD-2, 96h, 5mM urea",4.1
same,fold induction at 10000 µM,"HBD-2; 96 h, read-out: Expression of HBD-2, 96h, 10mM urea",6.1
same,fold induction at 20000 µM,"HBD-2; 96 h, read-out: Expression of HBD-2, 96h, 20mM urea",15
same,fold induction at 50000 µM,"HBD-2; 96 h, read-out: Expression of HBD-2, 96h, 50mM urea",12.6
same,fold induction at 100000 µM,"HBD-2; 96 h, read-out: Expression of HBD-2, 96h, 100mM urea",10.2
same,Expression of HBD-2,"HBD-2; 24 h, 1000 µM",1.1000
same,Expression of HBD-2,"HBD-2; 24 h, 10000 µM",1.6000
same,Expression of HBD-2,"HBD-2; 48 h, 1000 µM",0.7000
same,Expression of HBD-2,"HBD-2; 48 h, 5000 µM",1.6000
same,Expression of HBD-2,"HBD-2; 48 h, 50000 µM",6.2000
same,Expression of HBD-2,"HBD-2; 48 h, 100000 µM",2.6000
same,Expression of HBD-2,"HBD-2; 72 h, 1000 µM",2.6000
same,Expression of HBD-2,"HBD-2; 72 h, 10000 µM",7.0000
same,Expression of HBD-2,"HBD-2; 72 h, 20000 µM",13.2000
same,Expression of HBD-2,"HBD-2; 96 h, 1000 µM",1.8000
same,Expression of HBD-2,"HBD-2; 96 h, 5000 µM",4.2000
same,Expression of HBD-2,"HBD-2; 96 h, 100000 µM",10.9000
same,fold induction at 10000 µM,"HBD3; 3 h, read-out: relative gene expression level HBD3, 10mM urea, 3h, compared to untreated control cells",4
same,fold induction at 10000 µM,"HBD3; 6 h, read-out: relative gene expression level HBD3, 10mM urea, 6h, compared to untreated control cells",2
same,fold induction at 10000 µM,"HBD3; 12 h, read-out: relative gene expression level HBD3, 10mM urea, 12h, compared to untreated control cells",1.6
same,fold induction at 10000 µM,"HBD3; 24 h, read-out: relative gene expression level HBD3, 10mM urea, 24h, compared to untreated control cells",3.2
same,relative gene expression level HBD3,HBD3; 3 h,3.7000
same,relative gene expression level HBD3,HBD3; 6 h,1.8000
same,relative gene expression level HBD3,HBD3; 12 h,1.7000
same,relative gene expression level HBD3,HBD3; 24 h,3.3000
same,fold induction at 10000 µM,"HBD2; 3 h, read-out: relative gene expression level HBD2, 10mM urea, 3h, compared to untreated control cells",1.8
same,fold induction at 10000 µM,"HBD2; 6 h, read-out: relative gene expression level HBD2, 10mM urea, 6h, compared to untreated control cells",1.1
same,fold induction at 10000 µM,"HBD2; 12 h, read-out: relative gene expression level HBD2, 10mM urea, 12h, compared to untreated control cells",1.5
same,fold induction at 10000 µM,"HBD2; 24 h, read-out: relative gene expression level HBD2, 10mM urea, 24h, compared to untreated control cells",1.6
same,relative gene expression level HBD2,"HBD2; primary keratinocytes, 3 h, 10000 µM",1.7000
same,fold induction at 10000 µM,"HBD1; 3 h, read-out: relative gene expression level HBD1, 10mM urea, 3h, compared to untreated control cells",3.1
same,fold induction at 10000 µM,"HBD1; 6 h, read-out: relative gene expression level HBD1, 10mM urea, 6h, compared to untreated control cells",1.3
same,fold induction at 10000 µM,"HBD1; 12 h, read-out: relative gene expression level HBD1, 10mM urea, 12h, compared to untreated control cells",1.6
same,fold induction at 10000 µM,"HBD1; 24 h, read-out: relative gene expression level HBD1, 10mM urea, 24h, compared to untreated control cells",1.6
same,relative gene expression level HBD1,HBD1; 3 h,3.000
same,relative gene expression level HBD1,HBD1; 6 h,1.5000
same,fold induction at 10000 µM,"Humpsor; 3 h, read-out: relative gene expression level Humpsor, 10mM urea, 3h, compared to untreated control cells",1.9
same,fold induction at 10000 µM,"Humpsor; 6 h, read-out: relative gene expression level Humpsor, 10mM urea, 6h, compared to untreated control cells",2.6
same,fold induction at 10000 µM,"Humpsor; 24 h, read-out: relative gene expression level Humpsor, 10mM urea, 24h, compared to untreated control cells",1.5
same,relative gene expression level Humpsor,"Humpsor; primary keratinocytes, 6 h, 10000 µM",3.1000
